The values below come from patent publication US7192607B2, “Formulations for the prevention or the treatment of diseases affecting mucosae or skin, or for pregnancy prevention, and an applicator for the delivery of topical formulations into mucosal cavities” (Infectio Recherche Inc, priority 2002, dated 2007).

Data set [1] deals with HSV-1 (strain F). Nature of the data set: Infectivity of HSV-1 (strain F) to Vero cells after treatment with SLS or DS (plaque forming units). It is filed as cell-based, Herpes simplex virus type-1. To be noted: independent of whether the virus was pretreated, FIG. 1, read-out: concentration giving a loss of 50% of the viral infectivity. On the procedure: The effect of pretreating different strains of herpes viruses with SLS or DS on their viral infectivities to susceptible cells has been evaluated. In brief, cells were seeded in 24 well-plates (Costar, Montreal, QC, Canada). Prior to infection, the virus was either suspended in culture medium or phosphate buffered saline (PBS), or incubated with different concentrations of SLS in PBS for 1 h at 37° C. At confluency, cells were incubated with viral suspensions by centrifuging the plates (750× g for 45 min at 20° C.) to allow virus adsorption. Virus was removed and cell sheets were then overlaid with 0.5 ml of 0.6% agarose Seaplaque (Marine Colloids, Rockland, Md.) prepared in appropriate culture medium. The plates were incubated for 2 days at 37° C. Cells were then fixed with 10% formaldehyde in PBS for 20 min, washed with deionized water and stained with 0.05% methylene blue. Viral infectivity was evaluated via the determination of Plaque Forming Units (PFU).
HSV-1 (strain F) infectivity was reduced to 21% when viral particles were pretreated with 25 μM SLS. The infectivities of all HSV-2 strains were between 50 to 70% following preincubation with 25 μM SLS. A complete loss of the infectivity of all strains tested were obtained following pretreatment of the viruses with 50 μM SLS.
When SLS was immediately added to Vero cells following their infection, the loss of viral infectivity was less dramatic compared to that obtained for virus pretreated for 1 h at 37° C. with the same SLS concentrations. […] Similarly, pretreatment of the HSV-2 (strain 333) with SLS also influenced the infectivity of this strain (data not shown). On the other hand, DS reduces the infectivity of the virus independent of whether the virus was pretreated with DS.

Data set [2] concerns HSV-1 (strain F). Nature of the data set: Efficacy of SLS or DS added in overlay after infection against HSV-1 (strain F) in Vero cells (PFU). It counts as cell-based, Herpes simplex virus type-1. To be noted: cells infected 2 h, compound in overlay for 2 days, FIG. 2. On the procedure: In brief, cells were infected with the virus for 2 h at 37° C. Afterwards, supernatant was removed and cells were overlaid with 0.5 ml of EMEM +2% FBS containing 0.6% agarose Seaplaque and SLS or DS at the desired concentration. Plates were then incubated for 2 days at 37° C. in a 5% CO2 atmosphere. Cells were fixed with 10% formaldehyde in PBS for 20 min, washed with deionized water and stained with 0.05% methylene blue. Viral infectivity was evaluated following the determination of PFU.

Data set [3] relates to HSV-1 (strain F). As to the kind of experiment: Murine cutaneous infection model, HSV-1 pretreated with SLS or DS. It counts as in vivo, hairless mice (SKH1). On the procedure:
The effect of pretreating HSV-1 (strain F) with SLS on viral infectivity has also been evaluated in a murine cutaneous infection model. Female hairless mice (SKH1; Charles River Breeding Laboratories Inc., St-Constant, QC, Canada), 5–6 weeks old were used throughout this study. […] Mice were anesthetized by intraperitoneal injection of a mixture containing 70 mg/kg ketamine hydrochloride (Rogarsetic* injection USP; Rogar/STB Inc. Montreal, QC, Canada) and 11.5 mg/kg xylazine (Rompun®; Miles Canada Inc., Etobicoke, ON, Canada). The virus was inoculated on the lateral side of the body in the left lumbar skin area. The skin was scratched six times in a crossed-hatched pattern with a 27-gauge needle held vertically. Viral suspension (50 μl) was deposited onto the scarified area and rubbed for 10 to 15 see with a cotton tipped applicator saturated with EMEM+2% FBS or SLS or DS solutions. The scarified area was protected with a corn cushion which was maintained on the mice body with surgical tape. The porous inner wall of the aperture of the corn cushion was impermeabilized with tissue adhesive prior to use to prevent absorption of the drug. The aperture of the corn cushion was also closed with surgical tape. Mice were then returned to their cages and observed twice daily.
In infected untreated mice, no pathological signs of cutaneous infection were visible during the first four days following infection and only the scarified area remained appearent. On day 5, herpetic skin lesions began to appear in some mice in the form of small vesicles distant from the inoculation site. On day 6, almost all untreated mice developed herpetic skin lesions in the form of a 4–5 mm wide band extending from the spine to the ventral midline of the infected dermatome similar to zoster-like infections. Maximal mean lesion score was observed on day 8. Mean lesion score decreased thereafter from day 11 to day 15 because of spontaneous regression of cutaneous lesions in some mice. […] Of prime importance, all mice infected with the virus pretreated with 100 μM SLS survived the infection (data not shown).

The next data set has as its system Vero cells. Nature of the data set: Viability of Vero cells exposed to SLS or DS (MTS test). The settings on record: Vero cells exposed 1 h at 37° C. to concentrations as in FIG. 1 and Table 1; data not shown.
The nature of data set [4]: In vivo skin penetration of antivirals (distribution in skin tissues). Also on record: species or system mice.
A short description of data set [5]: Concentration of acyclovir in plasma after topical application. It counts as in vivo. The settings on record: drug incorporated within the poloxamer matrix; infected vs uninfected mice; 24 h.
Data set [6] concerns HSV-1 (strain F). Nature of the data set: Treatment of HSV-1 cutaneous lesions in mice with topical formulations. It counts as in vivo, hairless mice (SKH1). The settings on record: treatment started 24 h after infection, 3 times daily for 4 days. On the procedure: For the purpose of testing the efficacy of our gel formulations in a murine model of cutaneous HSV-1 infection, the solutions were prepared within a phosphate buffer (0.2 M, pH 6) to be compatible with the pH of the skin.
The efficacy of our different topical formulations has been evaluated in a murine model of cutaneous HSV-1 infection. In brief, female hairless mice (SKH1; Charles River Breeding Laboratories Inc., St-Constant, QC, Canada), 5–7 weeks old were anesthetized by intraperitoneal injection of a mixture containing 70 mg/kg ketamine hydrochloride and 11.5 mg/kg xylazine. The virus was inoculated on the lateral side of the body in the left lumbar skin area. The skin was scratched six times with a 27 gauge needle held vertically in a crossed-hatched pattern. Fifty μl of viral suspension (HSV-1 strain F, 1.5×10^6 plaque forming units (PFU)/ml) was rubbed for 10 to 15 sec on the scarified skin area with a cotton tipped applicator saturated with culture medium [minimum essential medium (MEM) supplemented with 100 U/ml of penicillin-streptomycin, 2 mM L-glutamine and 2% fetal bovine serum (MEM-E +2% FBS)]. The scarified area was protected with a corn cushion which was maintained on the mice body with surgical tape. […]
Different treatment regimens were evaluated in this study. […] The efficacy of the different formulations was evaluated using lesion scores and survival.

The subject of data set [7] is HSV-1 (strain F). As to the kind of experiment: In vitro susceptibility of HSV-1 to combination of foscarnet and SLS in Vero cells (PFU). It counts as cell-based, Herpes simplex virus type-1. To be noted: combinations of different concentrations in overlay, 2 days, FIG. 22. On the procedure: The effect of SLS on the efficacy of foscamet against HSV-1 (strain F) was investigated in Vero cells. In brief, cells were seeded in 24 well-plates (Costar, Montreal, QC, Canada) and were incubated with HSV-1 strain F (approximately 100 PFU/ml) for 2 h at 37° C. to allow virus adsorption. Afterwards, virus was removed and cells overlaid with 0.5 ml of 0.6% agarose Seaplaque (Marine Colloids, Rockland, Mass.) containing different concentrations of foscarnet, SLS or combination of both compounds. The plates were incubated for 2 days at 37° C. Cells were then fixed with 10% formaldehyde in PBS for 20 min, washed with deionized water and stained with 0.05% methylene blue. Virus susceptibility was evaluated via the determination of PFU.

Take dextran sulfate [DS]: the IC50 in the data set with HSV-1 (strain F) [1] is approximately 1 nM. The “concentration with complete efficacy against viral replication” value in the data set with HSV-1 (strain F) [2] worked out at 20 µM. The mean lesion score result in the data set with HSV-1 (strain F) [3] (virus pretreated with 0.25 nM DS) is “partial reduction”. For the same compound, in the data set on HSV-1 (strain F) [3] (virus pretreated with either 1 or 10 nM DS), the “protection against the development of herpetic lesions” value is listed as “better protection”. In the data set on Vero cells, the “cytotoxicity (viability, MTS test)” value is on record as “No signs of cytotoxicity”.
As for `Nc1nc2c(ncn2COCCO)c(=O)[nH]1` [acyclovir], the “effect of infection on amount in the epidermis” value in data set [4] (infected vs uninfected mice, 24 h) is recorded as “did not significantly increase”. In addition, in data set [4] (uninfected and infected mice, irrespective of the carrier, 24 h), the “concentration in the epidermis and dermis compared with that of foscarnet” value is reported as “higher”. The “increase of concentration in plasma by infection” value in data set [5] worked out at 4 fold.
For the compound `O=C(O)P(=O)(O)O` [foscarnet], the “mice that survived the infection” value in the data set with HSV-1 (strain F) [6] (0.5% foscarnet in solution) is given as “Half”. In the data set with HSV-1 (strain F) [6] (solution of 0.5% foscarnet), the mean lesion score entry is given as “large reduction”. Further, in data set [4] (infected mice, drug incorporated within the poloxamer vs phosphate buffer, 24 h), the “concentration in the epidermis and dermis” value is listed as “significantly higher”. The “amounts found in the underlying epidermis and dermis” value in data set [4] (uninfected mice, irrespective of the carrier, 24 h after topical application) is “No or negligible amounts”. In addition, the “efficacy of foscarnet against HSV-1 (strain F) in the presence of SLS” value with HSV-1 (strain F) [7] is on record as “enhanced”.
